# Assays:
# [1] = Hygroscopicity test (DVS); assay type: physicochemical
# Experimental: Dynamic vapor sorption (DVS) curves were acquired on a DVS Intrinsic in SMS (Surface Measurement Systems). The relative humidity at 25° C. was corrected with the deliquescence points of LiCl, Mg(NO3)2, and KCl.
# [2] = Pharmacokinetic experiment in SD rats; assay type: in vivo; conditions: oral intragastric 10 mg/kg
# Experimental: Six SPF-grade SD rats were prepared and weighed before administration. The dose of administration was calculated based on the weight. […] These administration solutions were orally and intragastrically administered at 10 mg/kg. The rats were weighed before administration, and the dose of administration was calculated based on the weight. 3 rats were used for each crystal form. The administration solutions were orally and intragastrically administered, followed by collection of samples via the jugular vein or other suitable means at the following time points: 0.25 […], and 24 h. About 0.20 mL of each sample was collected, and the plasma was separated out by centrifugation within 2 h. The compound I was detected, and plasma drug concentration-time curves were plotted. The pharmacokinetic parameters were calculated by utilizing WinNonlin according to the plasma concentration data at different time points.
# [3] = Solid-state stability test (XRPD, HPLC purity); assay type: physicochemical
# [4] = Solubility Test I (stepwise solvent addition); assay type: physicochemical; conditions: thermodynamic from solid, room temperature
# Experimental: About 2 mg of the crystal form A sample prepared according to Example 2 was weighed out and added to an HPLC vial, and the corresponding solvent was added stepwise (50/50/200/700 μL in sequence), followed by oscillation until the solid was completely dissolved. If the sample was still not completely dissolved after 1 mL of the solvent was added, no more solvent was added. The solubility range was calculated based on the mass of the solid sample, the volume of the solvent added, and the observed dissolution results, and the results are summarized in Table 3-1.
# [5] = Solubility Test II (saturated solubility by HPLC); assay type: physicochemical; conditions: for solubility at 24 h: 37 °C, thermodynamic from solid
# Experimental: Chromatographic column: Waters XTERRA RP18, 4.6 mm×150 mm, 3.5 μm or an equivalent chromatographic column. […] The gradient elution conditions are shown in Table 3-2. pH 4.5 acetate buffer: 0.59806 g of sodium acetate trihydrate was added to a 200-mL measuring flask and dissolved in an appropriate amount of water; 1.6 mL of glacial acetic acid was added; and the mixture was diluted to volume to obtain the pH 4.5 acetate buffer. pH 6.8 phosphate buffer: 1.38501 g of potassium dihydrogen phosphate and 0.18086 g of sodium hydroxide were added to the same 200-mL measuring flask; and the mixture was dissolved in water and diluted to volume to obtain the pH 6.8 phosphate buffer. 10.0 mL of each medium was precisely measured, and the media were placed into different 25-mL measuring flasks; an appropriate amount of each test crystal form was added; and the flasks were sealed and oscillated in an oscillator at 37° C. for 24 h to obtain supersaturated solutions. pH 6.8 phosphate buffer sample solution: the supersaturated solution prepared using the pH 6.8 phosphate buffer medium was filtered to obtain the pH 6.8 phosphate buffer sample solution. Water sample solution: the supersaturated solution prepared using the water medium was filtered to obtain the water sample solution. pH 4.5 acetate buffer sample solution: the supersaturated solution prepared using the pH 4.5 acetate buffer medium was filtered, and 1.0 mL of the filtrate was precisely measured and placed into a 10-mL measuring flask; the filtrate was diluted to volume with the pH 4.5 acetate buffer medium, and 1.0 mL of the solution was then precisely measured and placed into the 10-mL measuring flask; and the solution was diluted to volume with methanol to obtain the pH 4.5 acetate buffer sample solution. (ii) Preparation of crystal form A sample solution: pH 6.8 phosphate buffer sample solution: the supersaturated solution prepared using the pH 6.8 phosphate buffer medium was filtered to obtain the pH 6.8 phosphate buffer sample solution. Water sample solution: the supersaturated solution prepared using the water medium was filtered to obtain the water sample solution. pH 4.5 acetate buffer sample solution: the supersaturated solution prepared using the pH 4.5 acetate buffer medium was filtered, and 1.0 mL of the filtrate was precisely measured and placed into a 10-mL measuring flask; the filtrate was diluted to volume with the pH 4.5 acetate buffer medium, and 1.0 mL of the solution was then precisely measured and placed into a 25-mL measuring flask; and the solution was diluted to volume with methanol to obtain the pH 4.5 acetate buffer sample solution. Each medium sample solution was taken, 10 μL of each test sample solution was precisely measured and injected into a liquid chromatograph according to the chromatography conditions described above, and the chromatogram was recorded. The saturated solution degree of each medium was calculated according to the formula below. In the formula: WR=sample weight of control solution, mg; PR=purity factor of control; • AS=peak area of main peak in test solution: DS=dilution factor of test solution; • AR=peak area of main peak in control solution; DR=dilution factor of control solution;
# [6] = 25° C./60% RH/uncovered, 2 weeks
# [7] = 25° C./60% RH/uncovered, 4 weeks
# [8] = 25° C./60% RH/uncovered, 6 weeks
# [9] = 40° C./75% RH/uncovered, 2 weeks
# [10] = 40° C./75% RH/uncovered, 4 weeks
# [11] = 40° C./75% RH/uncovered, 6 weeks
compound,measurement,setting,value
"CCOc1cc(-c2ccc(N3CC4CC(C3)N4Cc3ccc(OC)nc3)nc2)c2c3cn[nH]c3nn2c1 (single isomer, unassigned) [Crystal form A]",hygroscopicity evaluation,"[1]; DVS at 25° C., 0% RH-95% RH, according to Chinese Pharmacopoeia 2015 Edition",slightly hygroscopic
same,hygroscopic weight gain,"[1]; DVS, 25° C./80% RH, listed as crystal form A",about 1.1%
same,crystal form after the DVS test (XRPD),[1]; after DVS test,not changed
same,AUC(0-t),"[2]; SD, rat, plasma, po, 10 mg/kg, 1 mg/mL in 5% DMSO in normal saline, compound I in plasma, 0.25-24 h, read-out: AUC(0-t)",19100 ng·h/mL
same,in vivo absorption,[2]; comparison of crystal forms,significantly superior to that of the crystal form B
same,Purity (area %),[3]; [6],99.95 area %
same,Relative to initial purity (%),[3]; [6],99.99%
same,Crystal form change,"[3]; 25° C./60% RH/uncovered, 2 weeks, XRPD",No change
same,Purity (area %),[3]; [7],99.94 area %
same,Relative to initial purity (%),[3]; [7],99.98%
same,Crystal form change,"[3]; 25° C./60% RH/uncovered, 4 weeks, XRPD",No change
same,Purity (area %),[3]; [8],99.96 area %
same,Relative to initial purity (%),[3]; [8],100.00%
same,Crystal form change,"[3]; 25° C./60% RH/uncovered, 6 weeks, XRPD",No change
same,Purity (area %),[3]; [9],99.96 area %
same,Relative to initial purity (%),[3]; [9],100.00%
same,Crystal form change,"[3]; 40° C./75% RH/uncovered, 2 weeks, XRPD",No change
same,Purity (area %),[3]; [10],99.96 area %
same,Relative to initial purity (%),[3]; [10],100.00%
same,Crystal form change,"[3]; 40° C./75% RH/uncovered, 4 weeks, XRPD",No change
same,Purity (area %),[3]; [11],99.95 area %
same,Relative to initial purity (%),[3]; [11],99.99%
same,Crystal form change,"[3]; 40° C./75% RH/uncovered, 6 weeks, XRPD",No change
same,Purity (area %),"[3]; 60° C./sealed, 24 h",99.96 area %
same,Relative to initial purity (%),"[3]; 60° C./sealed, 24 h",100.00%
same,Crystal form change,"[3]; 60° C./sealed, 24 h, XRPD",No change
same,HPLC purity under the test conditions,"[3]; all stability conditions (60° C. sealed 24 h; 25° C./60% RH and 40° C./75% RH uncovered 2, 4, 6 weeks)",not significantly reduced
same,crystal form under the test conditions,"[3]; all stability conditions, XRPD",not changed
same,solubility,"[4]; organic solvent or mixture, solvent 1,4-Dioxane",2000 to 6700 µg/mL
same,solubility,"[4]; organic solvent or mixture, solvent 2-MeTHF",2400 to 8000 µg/mL
same,solubility,"[4]; organic solvent or mixture, solvent ACN",< 2200 µg/mL
same,solubility,"[4]; organic solvent or mixture, solvent Acetone, undissolved sample completely dissolved at 50° C. ~1 h",< 1900 µg/mL
same,solubility,"[4]; organic solvent or mixture, solvent Anisole, undissolved sample completely dissolved at 50° C. ~1 h",< 2200 µg/mL
same,solubility,"[4]; organic solvent or mixture, solvent CHCl3",20000 to 40000 µg/mL
same,solubility,"[4]; organic solvent or mixture, solvent CPME, undissolved sample completely dissolved at 50° C. ~1 h",< 2000 µg/mL
same,solubility,"[4]; organic solvent or mixture, solvent DCM",7700 to 23000 µg/mL
same,solubility,"[4]; organic solvent or mixture, solvent DMSO",21000 to 42000 µg/mL
same,solubility,"[4]; organic solvent or mixture, solvent EtOAc, undissolved sample completely dissolved at 50° C. ~1 h",< 2200 µg/mL
same,solubility,"[4]; organic solvent or mixture, solvent EtOH, undissolved sample completely dissolved at 50° C. ~1 h",< 1900 µg/mL
same,solubility,"[4]; organic solvent or mixture, solvent IPA, undissolved sample completely dissolved at 50° C. ~1 h",< 2000 µg/mL
same,solubility,"[4]; organic solvent or mixture, solvent IPAC",< 2200 µg/mL
same,solubility,"[4]; organic solvent or mixture, solvent MIBK",< 2200 µg/mL
same,solubility,"[4]; organic solvent or mixture, solvent MTBE",< 2200 µg/mL
same,solubility,"[4]; organic solvent or mixture, solvent MeOH, undissolved sample completely dissolved at 50° C. ~1 h",< 2100 µg/mL
same,solubility,"[4]; organic solvent or mixture, solvent THE",1900 to 6300 µg/mL
same,solubility,"[4]; organic solvent or mixture, solvent Toluene",< 2000 µg/mL
same,solubility,"[4]; organic solvent or mixture, solvent n-Heptane",< 2000 µg/mL
same,solubility,"[4]; water, solvent H2O",< 2300 µg/mL
same,Saturated solubility,"[5]; pH 4.5 acetate buffer, 37° C., 24 h, listed as crystal form A",14.54508 mg/mL
same,solubility at 24 h,"[5]; pH 6.8 phosphate buffer, pH 6.8, aqueous buffer",0.04 µg/mL
same,solubility at 24 h,[5]; water,0.61 µg/mL

# — patent US20260265273A1, “SOLID FORM OF FUSED RING COMPOUND, AND PREPARATION METHOD THEREFOR AND USE THEREOF” (APPLIED PHARMACEUTICAL SCIENCE, INC., priority 2022, published 2026)
